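All cell lines were grown in 96-well plates and treated with compound for 48 hours. GI50 marks 50% less growth.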 Active and inactive are the calls of the source. No stated cut-off is given here; in the data, active = GI50 up to about 1.1 µM and inactive = higher.
Assays:
Test in all cases: DTP human tumour cell line panel, 48 h
HOP-62 = system: HOP-62
KM12 = system: KM12
HCC 2998 = system: HCC 2998
M14 = system: M14
A498 = system: A498
HT-29 = system: HT-29
NCI-H226 = system: NCI-H226
Malme-3M = system: Malme-3M
OVCAR-5 = system: OVCAR-5
SN12C = system: SN12C
SF-539 = system: SF-539
ACHN = system: ACHN
NCI-H522 = system: NCI-H522
COLO 205 = system: COLO 205

Measured: GI50

CC(=O)CCn1[nH]c(=O)c(Cl)c(Cl)c1=O
inactive: HOP-62 > 100 µM | KM12 > 100 µM | HCC 2998 > 100 µM | M14 > 100 µM | A498 > 100 µM | HT-29 > 100 µM | NCI-H226 > 100 µM | Malme-3M > 100 µM | OVCAR-5 > 100 µM | SN12C > 100 µM | SF-539 > 100 µM | ACHN > 100 µM

CCOC(=O)C1C(NC(N)=O)N(Cc2ccccc2)C(=O)N1Cc1ccccc1 (centres undefined)
inactive: HOP-62 > 100 µM | KM12 > 100 µM | HCC 2998 > 100 µM | M14 > 100 µM | HT-29 > 100 µM | Malme-3M > 100 µM | NCI-H522 > 100 µM | OVCAR-5 29.3 µM | COLO 205 > 100 µM | SF-539 > 100 µM | ACHN > 100 µM

O=C1/C(=C/c2cccc([N+](=O)[O-])c2)COc2ccccc21
inactive: HOP-62 11 µM | KM12 2.5 µM | M14 1.83 µM | A498 40.8 µM | HT-29 2.36 µM | NCI-H226 3.86 µM | Malme-3M 16.1 µM | NCI-H522 1.67 µM | OVCAR-5 > 35 µM | COLO 205 > 42.2 µM | SF-539 4.42 µM | ACHN 5.13 µM

Cc1cc(OCC(O)CO)ccc1-c1ccccc1 (centres undefined)
inactive: KM12 > 100 µM | HCC 2998 > 100 µM | M14 > 100 µM | A498 11.4 µM | HT-29 70.1 µM | NCI-H226 > 100 µM | Malme-3M > 100 µM | NCI-H522 > 100 µM | SN12C > 100 µM | COLO 205 61 µM | ACHN > 100 µM

CCOC(=O)C1=C(Nc2ccc(NC3=C(C(=O)OCC)C(=O)CS3)cc2)SCC1=O
inactive: HOP-62 34 µM | KM12 21.5 µM | M14 20.4 µM | A498 20.5 µM | HT-29 19.3 µM | NCI-H226 19.8 µM | Malme-3M 18.6 µM | NCI-H522 13.7 µM | OVCAR-5 22.7 µM | SN12C 19.5 µM | COLO 205 17.7 µM | SF-539 20.1 µM | ACHN 22 µM

CCOC(=O)C(=O)Nc1c(C)cccc1CC
inactive: HOP-62 > 100 µM | KM12 > 100 µM | HCC 2998 > 100 µM | M14 > 100 µM | HT-29 > 100 µM | NCI-H226 > 100 µM | Malme-3M > 100 µM | NCI-H522 > 100 µM | OVCAR-5 > 100 µM | SN12C > 100 µM | SF-539 > 100 µM | ACHN > 100 µM

CC1(C)C(=O)C(C)(C)C1=NNC(N)=S
inactive: HOP-62 > 100 µM | KM12 > 100 µM | HCC 2998 > 100 µM | M14 > 100 µM | HT-29 > 100 µM | NCI-H226 > 100 µM | Malme-3M > 100 µM | NCI-H522 > 100 µM | OVCAR-5 > 100 µM | SN12C > 100 µM | COLO 205 > 100 µM | SF-539 > 100 µM | ACHN > 100 µM

COc1cc(C(=O)CC2(O)C(=O)Nc3c(Cl)cc(Cl)cc32)ccc1O (centres undefined)
inactive: HOP-62 37.5 µM | KM12 78.3 µM | HCC 2998 31.5 µM | M14 66.7 µM | HT-29 29.4 µM | NCI-H226 40 µM | Malme-3M > 100 µM | NCI-H522 47.8 µM | OVCAR-5 > 100 µM | SN12C > 100 µM | COLO 205 28.7 µM | ACHN 57.1 µM

Cc1ccc(S(=O)(=O)C(C#N)c2nc3ccccc3nc2-n2ccnc2)cc1 (centres undefined)
inactive: HOP-62 > 100 µM | KM12 > 100 µM | HCC 2998 > 100 µM | M14 > 100 µM | HT-29 > 100 µM | NCI-H226 54.8 µM | Malme-3M > 100 µM | NCI-H522 > 100 µM | OVCAR-5 > 100 µM | SN12C > 100 µM | COLO 205 > 100 µM | SF-539 > 100 µM | ACHN > 100 µM

COCOCC/C=C/C=O
inactive: KM12 > 100 µM | HCC 2998 > 100 µM | M14 > 100 µM | A498 > 100 µM | HT-29 > 100 µM | Malme-3M > 100 µM | NCI-H522 > 100 µM | OVCAR-5 > 100 µM | SN12C > 100 µM | COLO 205 > 100 µM | SF-539 > 100 µM | ACHN > 100 µM

CC1(C)CC(C)(C)CC(O)(C2(O)CC(C)(C)CC(C)(C)C2)C1
inactive: HOP-62 > 100 µM | KM12 > 100 µM | HCC 2998 > 100 µM | M14 > 100 µM | HT-29 > 100 µM | NCI-H226 > 100 µM | Malme-3M > 100 µM | NCI-H522 > 100 µM | SN12C > 100 µM | COLO 205 > 100 µM | SF-539 > 100 µM | ACHN > 100 µM

CN(C)CC(C)(C)C(=O)/C=C/c1ccccc1
inactive: HOP-62 28.4 µM | KM12 14.1 µM | M14 13.8 µM | A498 17 µM | HT-29 15.8 µM | NCI-H226 13.9 µM | Malme-3M 11.6 µM | NCI-H522 10.3 µM | SN12C 13.3 µM | COLO 205 13.3 µM | SF-539 16.6 µM | ACHN 17.9 µM

C=CC1(C)/C(=N\O)C(C)(CC)C(=O)N1O (centres undefined)
inactive: HOP-62 > 100 µM | KM12 > 100 µM | M14 > 100 µM | A498 > 100 µM | HT-29 > 100 µM | Malme-3M > 100 µM | NCI-H522 > 100 µM | OVCAR-5 > 100 µM | SN12C > 100 µM | COLO 205 > 100 µM | SF-539 > 100 µM | ACHN > 100 µM

CC1CC[C@]2(C(=O)O)CCC3(C)C(=CC(=O)C4[C@@]5(C)CCC(=O)C(C)(C)C5CC[C@]43C)[C@@H]2[C@H]1C (some centres undefined)
inactive: HOP-62 22.1 µM | KM12 18.7 µM | M14 29.5 µM | A498 32.4 µM | HT-29 28.4 µM | NCI-H226 25.2 µM | Malme-3M 28.8 µM | NCI-H522 18.4 µM | SN12C 29.9 µM | COLO 205 17.6 µM | SF-539 18.9 µM | ACHN 21 µM

COc1cc(C)c2c(c1C)OC(=O)c1c(C)c(Cl)c(O)c(C=O)c1O2
inactive: HOP-62 20.3 µM | KM12 15.4 µM | HCC 2998 19.5 µM | M14 18.4 µM | A498 13.9 µM | HT-29 20.4 µM | NCI-H226 23.2 µM | Malme-3M 15.5 µM | OVCAR-5 27.7 µM | SN12C 21.8 µM | COLO 205 29.2 µM | SF-539 12.2 µM | ACHN 14.7 µM

Cc1cc(C2CCCCC2)n(O)c(=O)c1 [CICLOPIROX OLAMINE]
inactive: KM12 4.66 µM | HCC 2998 4.97 µM | M14 14.2 µM | A498 14.7 µM | HT-29 9.08 µM | Malme-3M 15.7 µM | NCI-H522 2.96 µM | OVCAR-5 8.28 µM | SN12C 12.5 µM | COLO 205 39.4 µM | SF-539 5.52 µM | ACHN 3.97 µM

Reference: ChEMBL document CHEMBL1201862, “PubChem BioAssay data set” (2004)
